Assay results from ChEMBL document CHEMBL6092221, “Discovery of a Novel Macrocyclic Noncovalent CDK7 Inhibitor for Cancer Therapy” (J Med Chem, 2024).
pIC50, pKd: −log10 of the molar value.

Assays:
[1] = test system: HCC70; assay: cells; conditions: Homo sapiens, HCC70, 72 h
Description: Antiproliferative activity against human HCC70 cells assessed as inhibition of cell proliferation incubated for 72 hrs by celltiter-glo assay

[2] = Cmax in female Balb/c nude mouse at 5 mg/kg, po; format: ADME, organism-based; conditions: in vivo
[3] = AUC(0 to t) in female Balb/c nude mouse at 5 mg/kg, po; format: ADME, organism-based; conditions: in vivo
[4] = Volume of distribution at steady state in female Balb/c nude mouse at 1 mg/kg, iv; format: ADME, organism-based; conditions: in vivo, read-out: Vdss
[5] = Efflux ratio of permeability in human Caco-2 cells; format: ADME, cell-based
[6] = Half life in female Balb/c nude mouse at 5 mg/kg, po; format: ADME, organism-based; conditions: in vivo
[7] = Permeability in human Caco-2 cells; format: ADME, cell-based; conditions: read-out: permeability
[8] = Clearance in female Balb/c nude mouse at 1 mg/kg, iv; format: ADME, organism-based; conditions: in vivo
[9] = test system: OVCAR-3; assay: cells; conditions: Homo sapiens, OVCAR-3, 72 h
Description: Antiproliferative activity against human OVCAR-3 cells assessed as inhibition of cell proliferation incubated for 72 hrs by celltiter-glo assay

[10] = molecular target: Cyclin-dependent kinase 7/ cyclin H (Homo sapiens, UniProt P50613); assay: Binding affinity to CDK7/CyclinH (unknown origin) assessed as dissociation constant by SPR assay; format: protein-complex assay
Sequence of Cyclin-dependent kinase 7/ cyclin H (P51946 whole entry): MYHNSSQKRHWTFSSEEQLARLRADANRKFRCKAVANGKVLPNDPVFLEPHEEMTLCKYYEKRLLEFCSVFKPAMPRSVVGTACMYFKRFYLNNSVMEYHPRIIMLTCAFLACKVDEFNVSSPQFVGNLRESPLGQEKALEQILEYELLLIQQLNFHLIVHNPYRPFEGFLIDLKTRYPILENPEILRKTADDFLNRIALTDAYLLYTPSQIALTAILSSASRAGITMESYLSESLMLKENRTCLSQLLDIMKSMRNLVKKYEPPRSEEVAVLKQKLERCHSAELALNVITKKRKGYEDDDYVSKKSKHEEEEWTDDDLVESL
Sequence of Cyclin-dependent kinase 7/ cyclin H (P50613 whole entry): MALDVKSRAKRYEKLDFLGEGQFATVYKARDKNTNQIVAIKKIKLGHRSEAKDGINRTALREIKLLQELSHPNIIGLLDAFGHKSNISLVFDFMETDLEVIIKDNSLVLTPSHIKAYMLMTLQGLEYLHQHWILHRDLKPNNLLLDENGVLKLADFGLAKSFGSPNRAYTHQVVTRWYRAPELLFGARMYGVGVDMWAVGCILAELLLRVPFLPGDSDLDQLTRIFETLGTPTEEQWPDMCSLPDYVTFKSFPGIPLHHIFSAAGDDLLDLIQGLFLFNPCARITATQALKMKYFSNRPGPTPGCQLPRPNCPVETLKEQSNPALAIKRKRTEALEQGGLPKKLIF

[11] = Oral bioavailability in female Balb/c nude mouse at 5 mg/kg; format: ADME, organism-based; conditions: in vivo
[12] = molecular target: CDK7/Cyclin H/MNAT1 (Homo sapiens, UniProt P50613); assay: Inhibition of CDK7/CyclinH/MAT1 (unknown origin) in presence of ATP by kinase activity assay; format: protein-complex assay
Sequence of CDK7/Cyclin H/MNAT1 (P51946 whole entry): as the sequence (P51946 whole entry) above
Sequence of CDK7/Cyclin H/MNAT1 (P50613 whole entry): as the sequence (P50613 whole entry) above
Sequence of CDK7/Cyclin H/MNAT1 (P51948 whole entry, further chain): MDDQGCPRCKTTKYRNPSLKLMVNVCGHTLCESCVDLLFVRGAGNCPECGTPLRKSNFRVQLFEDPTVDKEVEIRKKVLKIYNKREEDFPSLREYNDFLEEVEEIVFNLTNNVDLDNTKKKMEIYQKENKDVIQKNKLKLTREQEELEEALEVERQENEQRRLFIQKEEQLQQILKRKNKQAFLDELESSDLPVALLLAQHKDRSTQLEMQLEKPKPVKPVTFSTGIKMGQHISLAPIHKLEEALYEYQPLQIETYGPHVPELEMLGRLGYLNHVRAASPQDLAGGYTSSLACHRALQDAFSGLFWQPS

`CP(C)(=O)c1c2ccc3c(c[nH]c13)-c1nc(ncc1C(F)(F)F)N[C@H]1CC[C@@H](C1)NCCCCCCNC2=O` showed a pIC50 [1] of 6.37.

With `CN1CCCCO[C@H]2CC[C@@H](C2)Nc2ncc(C(F)(F)F)c(n2)-c2c[nH]c3c(P(C)(C)=O)c(ccc23)C1=O` the Cmax [2] was 0.343 µg/mL, the AUC(0-t) [3] was 0.563 µg·h/mL and the Vd [4] was 1 L/kg. The efflux ratio [5] was 1.1, the half-life [6] was 1 h and the Papp [7] was 260 nm/s. For the same compound, the clearance [8] was 2.75 L/h/kg, the pIC50 [9] was 6.74 and the pIC50 [1] was 6.61. It also gave a pKd [10] of 8.46 and a bioavailability [11] of 30.9%.

In the case of `CP(C)(=O)c1c2ccc3c(c[nH]c13)-c1nc(ncc1C(F)(F)F)N[C@H]1CC[C@@H](C1)NCCCCCNC2=O`, the pIC50 [1] was 6.69.

For `O=C1NCCOCCN2CC[C@@H](C2)Nc2ncc(C(F)(F)F)c(n2)-c2c[nH]c3cc1ccc23`, the pIC50 [12] was 7.96 and the pIC50 [1] was 5.74.

With `CN1C[C@H](F)CCN(C)[C@H]2CC[C@@H](C2)Nc2ncc(C(F)(F)F)c(n2)-c2c[nH]c3c(P(C)(C)=O)c(ccc23)C1=O` the efflux ratio [5] was 22.3, the Papp [7] was 9 nm/s and the pIC50 [9] was 7.20. The pIC50 [1] was 7.36.

For `CN1CCCCN(C)[C@H]2CC[C@@H](C2)Nc2ncc(C(F)(F)F)c(n2)-c2c[nH]c3c(P(C)(C)=O)c(ccc23)C1=O`, the Cmax [2] was 0.105 µg/mL, the AUC(0-t) [3] was 0.302 µg·h/mL and the Vd [4] was 5.6 L/kg. It also gave an efflux ratio [5] of 19.2, a half-life [6] of 2.1 h and a Papp [7] of 7.2 nm/s. The clearance [8] was 3.75 L/h/kg, the pIC50 [9] was 6.98 and the pIC50 [1] was 7.66. It also gave a bioavailability [11] of 22.7%.
